# Test results reported in patent publication US10544113B2 (priority 2016, dated 2020).
# Experiments:
# [1] = test system: DOR; assay: cAMP assay (adenylyl cyclase inhibition) in HEK-DOR cells; format: cell-based; details: in the presence of naloxone (20 nM)
# Protocol: (§1) Human embryonic kidney 293 (HEK-293) cells constitutively expressing MOR (HEK-MOR) and DOR (HEK-DOR) (kindly provided by Dr. Ping-Yee Law, University of Minnesota, USA) were cultured in high-glucose Dulbecco's modified Eagle's medium (DMEM, GIBCO) supplemented with 400 μg/mL G418 (Sigma), 2 mM L-glutamine and P/S/F (100 units/mL penicillin, 100 μg/mL streptomycin, 10% fetal bovine serum). Chinese hamster ovary (CHO)-K1 cells, stably expressing hMOR and Gα15 (CHO-K1/MOR/Gα15), were cultured in F12 medium (GIBCO) supplemented with 10 μg/mL Hygromycin B (Invivogen), 20 μg/mL Zeocin (Invivogen) P/S/F (100 units/mL penicillin, 100 μg/mL streptomycin, 10% fetal bovine serum). The cultures were incubated at 37° C. in a humidified 5% CO2 incubator.
# Briefly, 2000 HEK-MOR cells or HEK-DOR cells were plated in 10 μL/well of DMEM in 96-well solid bottom white plates and 10 μL/well compound in HBSS in the presence with 1 μM forskolin and 100 μM 3-isobutyl-1-methylxanthine (IBMX). After 30 minutes of incubation at room temperature, 10 μL/well of labeled d2-cAMP and 10 μL/well of anti-cAMP antibody (both diluted in lysis buffer) were added to each well. Two hours later, plates were measured using the FlexStationIII (Molecular Devices Corp.) with excitation at 330 nm and emissions of 620 nm and 665 nm.
# To characterize of novel opioid receptor AAMs, the activity and selectivity of compound 58 were tested by inhibiting adenylyl cyclase activity (i.e., cAMP assay).
# Opoid receptors inhibit adenylyl cyclase activity through Gi/o family of heterotrimeric G proteins. A cAMP-accumulation assay was performed to determine whether opioid receptor AAMs affect a G protein-dependent signaling pathway.
# [2] = target: MOR (Rattus norvegicus, UniProt P33535); assay: cAMP assay (adenylyl cyclase inhibition) in HEK-MOR cells; format: cell-based
# Protocol: as §1
# Briefly, 2000 HEK-MOR cells or HEK-DOR cells were plated in 10 μL/well of DMEM in 96-well solid bottom white plates and 10 μL/well compound in HBSS in the presence with 1 μM forskolin and 100 μM 3-isobutyl-1-methylxanthine (IBMX). After 30 minutes of incubation at room temperature, 10 μL/well of labeled d2-cAMP and 10 μL/well of anti-cAMP antibody (both diluted in lysis buffer) were added to each well. Two hours later, plates were measured using the FlexStationIII (Molecular Devices Corp.) with excitation at 330 nm and emissions of 620 nm and 665 nm. […]
# Sequence of MOR (P33535 whole entry, looked up): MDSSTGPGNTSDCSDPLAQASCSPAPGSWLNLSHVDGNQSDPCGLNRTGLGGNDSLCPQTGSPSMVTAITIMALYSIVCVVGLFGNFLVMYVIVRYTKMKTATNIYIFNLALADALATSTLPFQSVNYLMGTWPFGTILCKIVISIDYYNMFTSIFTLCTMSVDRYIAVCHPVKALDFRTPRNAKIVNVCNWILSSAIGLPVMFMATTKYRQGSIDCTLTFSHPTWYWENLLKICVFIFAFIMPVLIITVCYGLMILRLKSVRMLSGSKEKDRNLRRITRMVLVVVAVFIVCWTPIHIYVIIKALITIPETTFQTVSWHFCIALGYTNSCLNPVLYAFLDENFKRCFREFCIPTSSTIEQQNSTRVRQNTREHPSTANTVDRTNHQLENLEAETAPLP
compound,measurement,setting,value
Cc1cc(C(=O)O)ccc1N1C(=O)CSC1c1ccc(F)cc1 (stereo not drawn),effect on adenylyl cyclase activity,[1],produced no effect
same,selectivity mu over delta opioid receptor,"[2]; HEK-MOR vs HEK-DOR, with naloxone (20 nM)",selective for mu-over delta-opioid receptors
same,inhibition of adenylyl cyclase activity,"[2]; HEK-MOR, combined with naloxone (20 nM)",significantly inhibited adenylyl cyclase activity
